Reference: patent US20060088579A1, “Transdermal drug delivery systems” (priority 2002, published 2006)
Where “and” joins values, the source holds several entries; their conditions need not be identical. Equal values may be shown once. Where a name gives a salt, the structure may show the parent alone. Values belong to the compound of their own block, whether it stands above or below them.

What was measured:
[1] = human, pH 7.4
[2] = Microemulsion phase diagrams, drug load and stability; type: physicochemical; conditions: O/W ME
Protocol: (i) Microemulsion Phase Diagrams. Four microemulsion (ME) systems were investigated to determine their ternary phase diagrams. All percentages are given as mass ratios.
Each of the three components for a system was titrated until a phase change between microemulsion and two phase mixture was observed. The boundary of this transition was recorded over the entire concentration range. A microemulsion was determined as a miscible, optically clear, stable solution. At the transition to a two phase regime, there is a clear clouding of the mixture as well as an eventual separation of the phases.
(ii) Preparation of Formulations. […] Drug flux was tested through ME system 1 at two selected concentrations, one in the W/O region, and the other in the O/W. The W/O system consisted of H2O:IPM:Tween 80 (10:52:38 w/w) while the O/W system contained H2O:Ethanol:IPM:Tween 80 (27:18:16:39 w/w). Both systems stably incorporated 10% w/w NMP and 10% w/w oleyl alcohol. […] The “water phase” sample consisted of the aqueous elements H2O:Ethanol:NMP (51:31:18) in the same relative proportions as if the organic components were removed.

[3] = NMP partitioning between IPM and H2O; type: physicochemical; conditions: equilibrium mixture of H2O and IPM
Protocol: (vii) NMP Patitioning. Distilled water (2 ml), IPM (2 ml), and NMP (40 μl) were thoroughly vortexed in a glass tube. After equilibrating for 1 hour, the sample was centrifuged at 14,000 rpm for 6 minutes and separated into 2 phases. Samples of each phase were taken to determine NMP concentration by HPLC.
(viii) Quantification of Transport.

[4] = LDA chaperoning: lidocaine and NMP flux with 1% LDA in IPM or NMP solvent; type: in vitro ADME, human; conditions: for NMP Fluxss: NMP solvent
Text: (ii) Preparation of Skin Samples. […] (iii) Transport Experiments. […] J. […] (iv) LDA Chaperoning. […] The LDA's included octadecene, oleyl alcohol, and oleic acid. Similar solutions with NMP as the solvent were also obtained. […] (viii) Quantification of Transport. […] (ix) Calculations. […] D. Results

in vitro = conditions: human, pH 7.4
[5] = H2O/NMP binary vehicle transport
[6] = IPM/NMP binary vehicle transport, 2% w/v lidocaine free base; type: in vitro ADME, human
Text: (iii) Preparation of Skin Samples. […] (iv) Lidocaine Transport Experiments. […] J. […] (v) IPM/NMP Binary Vehicle Transport. […] (vi) Quantification of Lidocaine. […] (vii) Calculations.

[7] = human, 24 h, 2 % w/v, pH 7.4

time at which steady state is reached in vitro [1]: about 4 hours
SMILES: C[C@]12CC[C@@H]3c4ccc(O)cc4CC[C@H]3[C@@H]1CC[C@@H]2O [Estradiol]

% IPM Uptake (maximum) ([2]; Tween 80/Ethanol ratio 1:1): 47 % (w/w)
% IPM Uptake (maximum) ([2]; Tween 80/Ethanol ratio 1:2): 8.3 % (w/w)
% IPM Uptake (maximum) ([2]; Tween 80/Ethanol ratio 2:1): 42 % (w/w)
% IPM Uptake (maximum) ([2]; Tween 80/Ethanol ratio 2:3): 8.1 % (w/w)
% IPM Uptake (maximum) ([2]; Tween 80/Ethanol ratio 4:1): 4.5 % (w/w)
% IPM Uptake (maximum) ([2]; Tween 80/Ethanol ratio 9:1): 1.6 % (w/w)
SMILES: CCCCCCCCCCCCCC(=O)OC(C)C [IPM, isopropyl myristate]

NMP partition in the water phase [3]: 98%
[IPM]/[H2O] partition coefficient of NMP [3]: 0.02±0.001 and 0.02
NMP Fluxss ([4]; 1% w/v isopropyl myristate): 15.8 ± 3.6 mg/cm^2/hr
NMP Fluxss ([4]; 1% w/v octadecene): 15.3 ± 1.2 mg/cm^2/hr
NMP Fluxss ([4]; 1% w/v oleic acid): 17.6 ± 2.0 mg/cm^2/hr
NMP Fluxss ([4]; 1% w/v oleyl alcohol): 20.7 ± 1.0 mg/cm^2/hr
NMP Fluxss ([4]; no LDA): 12.6±0.5 mg/cm^2/hr
flux of NMP through human skin ([4]; approximate value): ~10 mg/cm^2/hr
Papp at 24 h, 10 % v/v (in vitro): 0.03 ×10⁻⁶ cm/s
Papp at 24 h, 20 % v/v (in vitro): 0.0178 ×10⁻⁶ cm/s
Papp at 24 h, 40 % v/v (in vitro): 0.0281 ×10⁻⁶ cm/s
Papp at 24 h, 50 % v/v (in vitro): 0.00861 ×10⁻⁶ cm/s
Papp at 24 h, 60 % v/v (in vitro): 0.0758 ×10⁻⁶ cm/s
Papp at 24 h, 80 % v/v (in vitro): 1.74 ×10⁻⁶ cm/s
Papp at 24 h, 90 % v/v (in vitro): 4.36 ×10⁻⁶ cm/s
Papp at 24 h, 100 % v/v (in vitro): 1.75 ×10⁻⁶ cm/s
NMP Fluxss ([5]; 10% NMP): 0.007 ± 0.007 μg/cm^2/hr
NMP Fluxss ([5]; 20% NMP): 0.008 ± 0.003 μg/cm^2/hr
NMP Fluxss ([5]; 40% NMP): 0.026 ± 0.021 μg/cm^2/hr
NMP Fluxss ([5]; 50% NMP): 0.010 ± 0.002 μg/cm^2/hr
NMP Fluxss ([5]; 60% NMP): 0.106 ± 0.058 μg/cm^2/hr
NMP Fluxss ([5]; 80% NMP): 3.26 ± 0.74 μg/cm^2/hr
NMP Fluxss ([5]; 90% NMP): 9.18 ± 0.53 μg/cm^2/hr
NMP Fluxss ([5]; 100% NMP): 12.6 ± 0.5 μg/cm^2/hr
NMP 24 Hour Transport ([6]; 10% NMP (v/v)): 22.8 ± 3.7 µg
NMP Fluxss ([6]; 10% NMP (v/v)): 1.46 ± 0.9 μg cm^−2 hr^−1
NMP 24 Hour Transport ([6]; 25% NMP (v/v)): 83.6 ± 5.7 µg
NMP Fluxss ([6]; 25% NMP (v/v)): 5.40 ± 0.49 μg cm^−2 hr^−1
NMP 24 Hour Transport ([6]; 50% NMP (v/v)): 112 ± 5.3 µg
NMP Fluxss ([6]; 50% NMP (v/v)): 9.01 ± 0.84 μg cm^−2 hr^−1
NMP 24 Hour Transport ([6]; 60% NMP (v/v)): 134 ± 13 µg
NMP Fluxss ([6]; 60% NMP (v/v)): 11.2 ± 1.2 μg cm^−2 hr^−1
NMP 24 Hour Transport ([6]; 75% NMP (v/v)): 161 ± 6 µg
NMP Fluxss ([6]; 75% NMP (v/v)): 14.0 ± 0.9 μg cm^−2 hr^−1
NMP 24 Hour Transport ([6]; 90% NMP (v/v)): 128 ± 1 µg
NMP Fluxss ([6]; 90% NMP (v/v)): 11.7 ± 0.1 μg cm^−2 hr^−1
NMP 24 Hour Transport ([6]; 100% NMP (v/v)): 115 ± 0.2 µg
NMP Fluxss ([6]; 100% NMP (v/v)): 10.7 ± 0.2 μg cm^−2 hr^−1
SMILES: CN1CCCC1=O [NMP, n-methyl pyrrolidone]

Fluxss from H2O [7]: 2.44 ± 0.98 μg/cm^2/hr
Fluxss from H2O/NMP [7]: 6.31 ± 0.14 μg/cm^2/hr
SMILES: CCCNC(C)C(=O)Nc1ccccc1C (centres unmarked) [Prilocaine HCl]
